This is an account of results in publication PMC9246256, “Structure-based optimization of type III indoleamine 2,3-dioxygenase 1 (IDO1) inhibitors” (Journal of Enzyme Inhibition and Medicinal Chemistry, 2022).

Read-outs that look alike come from different tables or passages of the source.

The target of this experiment is T1, purified recombinant IDO1 (Homo sapiens, UniProt P14902).
T1 construct: Full-length human IDO1 gene was cloned into the pET-28a vector; inferred from pET-28a vector and HisTrap purification; made in house; host or cells: E. coli Rosetta (DE3)
T1 sequence (P14902 whole entry): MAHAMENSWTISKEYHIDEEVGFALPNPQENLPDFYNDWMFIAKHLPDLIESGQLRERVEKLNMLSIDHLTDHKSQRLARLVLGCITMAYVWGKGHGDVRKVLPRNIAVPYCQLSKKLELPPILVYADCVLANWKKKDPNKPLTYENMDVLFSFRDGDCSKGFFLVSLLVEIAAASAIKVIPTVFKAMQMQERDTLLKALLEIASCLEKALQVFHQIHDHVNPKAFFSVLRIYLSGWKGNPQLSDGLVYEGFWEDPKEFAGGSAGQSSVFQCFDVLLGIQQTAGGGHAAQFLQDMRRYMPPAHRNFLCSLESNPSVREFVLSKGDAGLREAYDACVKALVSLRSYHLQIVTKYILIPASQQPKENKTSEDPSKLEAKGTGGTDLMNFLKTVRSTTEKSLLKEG
The experiment can be described thus: Enzymatic IDO1 inhibition assay (ascorbate/methylene blue reduction system, HPLC detection of kynurenine). Format: biochemical. To be noted: for IC50: enzymatic, L-Trp 100 µM, 0.01% Triton X-100, 5% DMSO, 20 min at room temperature, pH 6.5, duplicates; for LE [kcal/mol/HA]: ligand efficiency, LE = -RT log(IC50)/number of heavy atoms, from enzymatic IC50.

Procedure: Enzymatic IC50 values were measured with the ascorbate/methylene blue reduction system[85] in presence of a non-ionic detergent to reduce compound aggregation as described before[28]. Kynurenine and L-Trp concentrations were determined by HPLC through UV detection.
Full-length human IDO1 gene was cloned into the pET-28a vector and expressed in E. coli Rosetta (DE3) cells. […] The culture was harvested and frozen at −80 °C until further use. The frozen cells were lysed by sonication in 20 mM Tris pH 7, 400 mM NaCl, 1 mM MgCl2, 20 mM imidazole, 1 mM DTT, 0.5 mg/mL Lysozyme and Protease inhibitor. After centrifugation, the supernatant was loaded into a HisTrap HP column pre-equilibrated with buffer containing 20 mM Tris pH 7, 500 mM NaCl and 20 mM imidazole, and eluted with the same buffer containing 500 mM imidazole. Fractions containing IDO1 were pooled, concentrated, and injected on a size exclusion chromatography column (HiLoad Superdex S75 16/60) to increase purity. hIDO1 fractions were concentrated to 20 mg/mL in 20 mM Tris pH 7 and 150 mM NaCl.
The enzymatic inhibition assays were performed as described by Takikawa et al.[130] with some modifications. Briefly, the reaction mixture (100 µL) contained potassium phosphate buffer (100 mM, pH 6.5) ascorbic acid (20 mM), catalase (400 units/mL), methylene blue (10 µM), purified recombinant IDO1 (2.5 ng/µL), L-Trp (100 µM), Triton X-100 (0.01%) and DMSO (5 µL). The inhibitors were serially diluted 3-fold for at least 8 different concentrations. After incubation at room temperature for 20 min, the reaction was stopped in its linear phase by addition of trichloroacetic acid solution (40 mL, 30% w/v), and the samples were incubated at 50 °C for 30 min. After centrifugation, 80 µl of supernatant from each well were used for HPLC analysis. The mobile phase for HPLC analysis was composed of 50% (v/v) of methanol and 50% of sodium citrate buffer (40 mM, pH 2.4) containing 400 µM sodium dodecyl sulphate. […] All assays were carried out in duplicates. The activity (Act) of each compound was calculated as Act = RT log(IC50) in analogy to the relation between the binding free energy and the Ki value. The ligand efficiency (LE) was calculated as LE = −Act/NHA, where NHA is the number of non-hydrogen atoms (heavy atoms) in the compound.

Regarding `O=C(c1cnn[nH]1)c1ccccc1Cl` [Compound 100, (2-Chlorophenyl)(1H-1,2,3-triazol-5-yl)methanone], the half-inhibitory concentration (IC50) (in general, the point on the concentration scale where inhibition reaches its midpoint) (read-out: IC50 [ μ M] (SD)) is > 1000 µM. In the case of `CON=C(c1ccccc1)c1c[nH]nn1` [Compound 87, Phenyl(1H-1,2,3-triazol-4-yl)methanone O-methyl oxime], the IC50 (read-out: IC50 [ μ M] (SD)) was > 1000 µM. For `Clc1cncc(-c2nc[nH]n2)n1` [Compound 162, 2-Chloro-6-(1H-1,2,4-triazol-3-yl)pyrazine], the “LE [kcal/mol/HA]” value was 0.41 kcal/mol/HA. For the same molecule, the IC50 (read-out: IC50 [ μ M] (SD)) amounted to 250 µM. Turning to `COc1cccc(OC)c1-c1c[nH]nn1` [Compound 45, 4–(2,6-Dimethoxyphenyl)-1,2,3-triazole], the IC50 (read-out: IC50 [ μ M] (SD)) was > 1000 µM. On the same count and under the same terms, the value for `O=C(c1ccc(Br)cc1)c1[nH]nnc1CBr` [Compound 124, (4-(Bromomethyl)-1H-1,2,3-triazol-5-yl)(4-bromophenyl)methanone] was > 1000 µM; that for `c1ccc(Nc2[nH]nnc2-c2ccccc2)cc1` [Compound 80] was > 250 µM; that for `O=C(Nc1ccccc1)c1cn[nH]n1` [Compound 86, N-Phenyl-1H-1,2,3-triazole-4-carboxamide] was > 1000 µM. The same measure, in the same setting: the value for `O=C(Nc1c(Cl)cccc1-c1nc[nH]n1)c1ccccc1` [Compound 154, N-(2-Chloro-6-(1H-1,2,4-triazol-3-yl)phenyl)benzamide] was > 1000 µM.

As for `O=C(c1ccc(Br)cc1)c1[nH]nnc1CO` [Compound 123, (4-Bromophenyl)(4-(hydroxymethyl)-1H-1,2,3-triazol-5-yl)methanone], the half-maximal inhibitory concentration (IC50) (read-out: IC50 [ μ M] (SD)) is > 1000 µM. Regarding `Cc1[nH]nnc1-c1cccc(Cl)c1` [Compound 63, 4–(3-Chlorophenyl)-5-methyl-1,2,3-triazole], the half-maximal inhibitory concentration (IC50) (read-out: IC50 [ μ M] (SD)) is > 1000 µM. With `Cc1cccc(-c2cnn[nH]2)c1` [Compound 21], the “LE [kcal/mol/HA]” value is recorded as 0.53 kcal/mol/HA. On to `Oc1ccc(-c2c[nH]nn2)cc1` [Compound 20, 4–(1,2,3-Triazol-4-yl)phenol], for which the IC50 (read-out: IC50 [ μ M] (SD)) is > 1000 µM. Consider `Fc1cccc(-c2nc[nH]n2)c1` [Compound 137, 3–(3-Fluorophenyl)-1H-1,2,4-triazole], for which the “LE [kcal/mol/HA]” value came to 0.43 kcal/mol/HA. Where the note is “read-out: IC50 [ μ M] (SD)”, the concentration for half-maximal inhibition (IC50) came to 160 µM. Turning to `Fc1ccc(-c2nc[nH]n2)cc1` [Compound 134, 3–(4-Fluorophenyl)-1H-1,2,4-triazole], for the setting “read-out: IC50 [ μ M] (SD)”, the IC50 is > 1000 µM.

`Clc1cc(Cl)cc(-c2c[nH]nn2)c1` [Compound 50, 4–(3,5-Dichlorophenyl)-1,2,3-triazole]: the “LE [kcal/mol/HA]” value was 0.44 kcal/mol/HA. Also, for the setting “read-out: IC50 [ μ M] (SD)”, the 50% inhibitory concentration (IC50) is 58 µM. For the molecule `O=C(c1ccc(O)cc1)c1cnn[nH]1` [Compound 108, (4-Hydroxyphenyl)(1H-1,2,3-triazol-5-yl)methanone], where the note is “read-out: IC50 [ μ M] (SD)”, the IC50 was > 1000 µM. `CCc1cccc(-c2cnn[nH]2)c1` [Compound 22]: the “LE [kcal/mol/HA]” value is on record as 0.51 kcal/mol/HA. Still for that read-out and setting: the value for `Nc1ccc(Br)cc1-c1nnc[nH]1` [Compound 12] was 0.80 kcal/mol/HA. As for `COc1ccccc1C(=O)c1cnn[nH]1` [Compound 103, (2-Methoxyphenyl)(1H-1,2,3-triazol-5-yl)methanone], the half-maximal inhibitory concentration (IC50) (read-out: IC50 [ μ M] (SD)) is > 1000 µM. Take `Cc1cccc2sc3nncn3c12` [Compound 167, tryclazole, reference compound]: where the note is “IC50 [ μ M] (SD)”, the IC50 was > 1000 µM. In the case of `c1ccc(Nc2cnn[nH]2)cc1` [Compound 79], the IC50 (read-out: IC50 [ μ M] (SD)) was > 100 µM. On to `CC(C)c1cccc(-c2c[nH]nn2)c1` [Compound 23, 4–(3-Isopropylphenyl)-1,2,3-triazole], for which the “LE [kcal/mol/HA]” value amounted to 0.35 kcal/mol/HA. The IC50 (read-out: IC50 [ μ M] (SD)) came out at 280 µM. Taken in the same sequence, the figures for `O=C(c1ccccc1)c1cnn[nH]1` [Compound 99, Phenyl(1H-1,2,3-triazol-5-yl)methanone] were 0.35 kcal/mol/HA and 430 µM.

`Brc1ccc(Nc2nnc[nH]2)cc1` [Compound 166, N-(4-Bromophenyl)-4H-1,2,4-triazol-3-amine]: the 50% inhibitory concentration (IC50) (read-out: IC50 [ μ M] (SD)) is > 1000 µM. On the same count and under the same terms, under `OC(c1ccccc1)c1c[nH]nn1` (stereo not drawn) [Compound 85, Phenyl(1,2,3-triazol-4-yl)methanol] stands > 1000 µM. As to `CCCCc1cccc(-c2c[nH]nn2)c1` [Compound 24, 4–(3-Butylphenyl)-1,2,3-triazole], the “LE [kcal/mol/HA]” value was 0.41 kcal/mol/HA. Besides, the 50% inhibitory concentration (IC50) (read-out: IC50 [ μ M] (SD)) amounted to 34 µM. Turning to `NCc1nn[nH]c1C(=O)c1ccc(Br)cc1` [Compound 126, (4-(Aminomethyl)-1H-1,2,3-triazol-5-yl)(4-bromophenyl)methanone], the IC50 (read-out: IC50 [ μ M] (SD)) is > 1000 µM. Consider `c1ccc2c(c1)ccc1nn[nH]c12` [Compound 88], for which the IC50 (read-out: IC50 [ μ M] (SD)) is > 100 µM. Consider `COc1cccc(C(=O)c2cnn[nH]2)c1` [Compound 104, (3-Methoxyphenyl)(1H-1,2,3-triazol-5-yl)methanone], for which the “LE [kcal/mol/HA]” value came out at 0.28 kcal/mol/HA. Moreover, the IC50 (read-out: IC50 [ μ M] (SD)) stood at 990 µM. For `c1ccc(Oc2cnn[nH]2)cc1` [Compound 82, 4-(Phenoxy)-1,2,3-triazole], the IC50 (read-out: IC50 [ μ M] (SD)) is > 1000 µM. For the molecule `Oc1ccccc1-n1cncn1` [Compound 171], the “LE [kcal/mol/HA]” value turned out to be 0.52 kcal/mol/HA. Besides, the half-maximal inhibitory concentration (IC50) (read-out: IC50 [ μ M] (SD)) was determined as 32 µM. Taken in the same sequence, the figures for `O=C(c1cccc(Cl)c1)c1cnn[nH]1` [Compound 101, (3-Chlorophenyl)(1H-1,2,3-triazol-5-yl)methanone] were 0.33 kcal/mol/HA and 450 µM.

For the molecule `c1ccc(-n2cncn2)cc1` [Compound 170, 1-phenyl-1,2,4-triazole], the “LE [kcal/mol/HA]” value came to 0.38 kcal/mol/HA. The IC50 (read-out: IC50 [ μ M] (SD)) was found to be 870 µM. In the case of `c1ccc(-c2nnc[nH]2)nc1` [Compound 159, 2-(1H-1,2,4-Triazol-3-yl)pyridine], the half-inhibitory concentration (IC50) (IC50 [ μ M] (SD)) is > 1000 µM. Turning to `Clc1cccc(Cl)c1-c1c[nH]nn1` [Compound 51, 4–(2,6-Dichlorophenyl)-1,2,3-triazole], the “LE [kcal/mol/HA]” value was determined as 0.37 kcal/mol/HA. Besides, the IC50 (read-out: IC50 [ μ M] (SD)) was determined as 280 µM. For `NC(=O)CSc1nnc2sc3ccccc3n12` [Compound 168, 2-((1,9a-Dihydrobenzo[4,5]thiazolo[2,3-c][1,2,4]triazol-3-yl)thio)acetamide], the half-inhibitory concentration (IC50) (read-out: IC50 [ μ M] (SD)) is > 1000 µM. For `Nc1ccsc1-c1nc[nH]n1` [Compound 161, 2-(1H-1,2,4-Triazol-3-yl)thiophen-3-amine], the “LE [kcal/mol/HA]” value stood at 0.57 kcal/mol/HA. Where the note is “read-out: IC50 [ μ M] (SD)”, the 50% inhibitory concentration (IC50) was 10 µM. Take `c1ccc(COc2ccccc2-c2c[nH]nn2)cc1` [Compound 25, 4–(2-Benzyloxyphenyl)-1,2,3-triazole]: the 50% inhibitory concentration (IC50) (read-out: IC50 [ μ M] (SD)) is > 500 µM. `c1ccc(Sc2c[nH]nn2)cc1` [Compound 83, 4-(Phenylthio)-1,2,3-triazole]: the “LE [kcal/mol/HA]” value is listed as 0.37 kcal/mol/HA. Further, the IC50 (read-out: IC50 [ μ M] (SD)) came out at 590 µM.

In the case of `Brc1cccc(-c2nc[nH]n2)c1` [Compound 135, 3–(3-Bromophenyl)-1H-1,2,4-triazole], the “LE [kcal/mol/HA]” value was found to be 0.55 kcal/mol/HA. For the same molecule, where the note is “read-out: IC50 [ μ M] (SD)”, the concentration for half-maximal inhibition (IC50) came to 16 µM.

Take `c1cc(-c2nc[nH]n2)ccn1` [Compound 158, 4-(1H-1,2,4-Triazol-3-yl)pyridine]: the IC50 (read-out: IC50 [ μ M] (SD)) was > 1000 µM. Same read-out and setting: the value for `O=C(Nc1ccccc1-c1nc[nH]n1)c1ccccc1` [Compound 152, N-(2-(1H-1,2,4-triazol-3-yl)phenyl)benzamide] was > 100 µM; that for `O=C(c1cccc(O)c1)c1cnn[nH]1` [Compound 107, (3-Hydroxyphenyl)(1H-1,2,3-triazol-5-yl)methanone] was > 1000 µM.

For `Nc1cccnc1-c1nc[nH]n1` [Compound 160, 2-(1H-1,2,4-Triazol-3-yl)pyridine-3-amine], the “LE [kcal/mol/HA]” value is reported as 0.55 kcal/mol/HA. In addition, the IC50 (read-out: IC50 [ μ M] (SD)) stood at 16 µM.

Consider `N#Cc1[nH]nnc1-c1ccccc1` [Compound 62, 4-Phenyl-1H-1,2,3-triazole-5-carbonitrile], for which the “LE [kcal/mol/HA]” value came to 0.34 kcal/mol/HA. In addition, for the setting “read-out: IC50 [ μ M] (SD)”, the 50% inhibitory concentration (IC50) was 630 µM. Consider `c1ccc2c(c1)Cc1n[nH]nc1-2` [Compound 89, 3,8-Dihydroindeno[1,2-d][1,2,3]triazole], for which the IC50 (read-out: IC50 [ μ M] (SD)) is > 1000 µM.

As for `Oc1ccc(CCc2ccccc2)cc1-c1cnn[nH]1` [Compound 39, 4-Phenylethyl-2-(1H-1,2,3-triazol-5-yl)phenol], the “LE [kcal/mol/HA]” value turned out to be 0.26 kcal/mol/HA. Moreover, the 50% inhibitory concentration (IC50) (read-out: IC50 [ μ M] (SD)) turned out to be 160 µM.

With `NC(=O)c1[nH]nnc1-c1cc(Cl)ccc1O` [Compound 67], for the setting “read-out: IC50 [ μ M] (SD)”, the concentration for half-maximal inhibition (IC50) was > 1000 µM. On to `O=S(=O)(c1ccccc1)c1c[nH]nn1` [Compound 84, 4-(Phenylsulfonyl)-1H-1,2,3-triazole], for which the half-inhibitory concentration (IC50) (read-out: IC50 [ μ M] (SD)) was > 1000 µM. For the molecule `Clc1ccc(Cl)c(-c2cnn[nH]2)c1` [Compound 46], the “LE [kcal/mol/HA]” value is on record as 0.54 kcal/mol/HA. With `Cc1c(Br)ccc(N)c1-c1nc[nH]n1` [Compound 155, 4-Bromo-3-methyl-2-(1H-1,2,4-triazol-3-yl)aniline], the “LE [kcal/mol/HA]” value worked out at 0.41 kcal/mol/HA. For the same molecule, under “read-out: IC50 [ μ M] (SD)”, the IC50 worked out at 63 µM.
